Test results from ChEMBL document CHEMBL4715688, “Discovery, Optimization, and in Vivo Evaluation of Benzimidazole Derivatives AM-8508 and AM-9635 as Potent and Selective PI3Kδ Inhibitors” (J Med Chem, 2016).
In brackets after ≈: the same amount, converted by molar mass.

Columns and labels:
[1] = Aqueous solubility of the compound in PBS buffer at pH 7.4 incubated for 72 hrs by HPLC analysis; format: physicochemical
[2] = Metabolic stability in human liver microsomes assessed as metabolic turnover at 1 uM measured after 30 mins in presence of NADPH by LC/MS analysis; format: ADME, Microsome; conditions: read-out: Drug metabolism
[3] = Metabolic stability in rat liver microsomes assessed as metabolic turnover at 1 uM measured after 30 mins in presence of NADPH by LC/MS analysis; format: ADME, Microsome; conditions: read-out: Drug metabolism
[4] = Clearance in male Sprague-Dawley rat at 0.5 mg/kg, iv; format: ADME, organism-based; conditions: in vivo
[5] = Unbound clearance in male Sprague-Dawley rat at 0.5 mg/kg, iv; format: ADME, organism-based; conditions: in vivo
[6] = Oral bioavailability in male Sprague-Dawley rat at 2 mg/kg; format: ADME, organism-based; conditions: in vivo
[7] = Clearance in male Sprague-Dawley rat at 0.72 mg/kg, iv; format: ADME, organism-based; conditions: in vivo
[8] = Clearance in male Sprague-Dawley rat at […], iv; format: ADME, organism-based; conditions: in vivo, dose 0.71 mg/kg
[9] = Clearance in male Sprague-Dawley rat at 0.8 mg/kg, iv; format: ADME, organism-based; conditions: in vivo

solubility at 72 h [1] [µM]	metabolised at 0.5 h, 1 µM [2] [%]	metabolised at 0.5 h, 1 µM [3] [%]	clearance [4] [L/h/kg]	CL free [5] [L/h/kg]	bioavailability [6] [%]	clearance [7] [L/h/kg]	clearance [8] [L/h/kg]	clearance [9] [L/h/kg]	Structure (SMILES)
500 (≈ 196 µg/mL)	< 10	< 10	0.99	3.1	41				C[C@H](Nc1ncnc(N)c1C#N)c1nc2ccc(F)cc2n1-c1cncc(F)c1
474 (≈ 177 µg/mL)	< 10	< 10		2.6	45		0.93		C[C@H](Nc1ncnc(N)c1C#N)c1nc2ccc(F)cc2n1-c1cccnc1
500 (≈ 226 µg/mL)	< 10	< 10		12.3				4.3	C[C@H](Nc1ncnc(N)c1C#N)c1nc2ccc(F)cc2n1-c1cccc(S(C)(=O)=O)c1
305 (≈ 125 µg/mL)	11	30	2.64	20.3					C[C@H](Nc1ncnc(N)c1C#N)c1nc2ccc(F)cc2n1-c1cc(F)cc(F)c1

The next lines start with the compound.

Structure (SMILES)	solubility at 72 h [1] [µM]	metabolised at 0.5 h, 1 µM [2] [%]	metabolised at 0.5 h, 1 µM [3] [%]	clearance [4] [L/h/kg]	CL free [5] [L/h/kg]	bioavailability [6] [%]	clearance [7] [L/h/kg]	clearance [8] [L/h/kg]	clearance [9] [L/h/kg]
C[C@H](Nc1ncnc(N)c1C#N)c1nc2ccc(F)cc2n1-c1ccccc1	374 (≈ 140 µg/mL)	< 10	26	2.41	26.8				
C[C@H](Nc1ncnc(N)c1C#N)c1nc2ccc(F)cc2n1-c1cccc(F)c1	401 (≈ 157 µg/mL)	15	28		27.6		2.76		
C[C@H](Nc1ncnc(N)c1C#N)c1nc2ccc(F)cc2n1-c1ccc(F)cc1	353 (≈ 138 µg/mL)	< 10	22	1.78	18				
C[C@H](Nc1ncnc(N)c1C#N)c1nc2ccc(F)cc2n1-c1ccccn1	500 (≈ 187 µg/mL)	< 10	< 10	0.97	4.4	58			
